# According to article PMC8006131, “Pulse Dipolar EPR Reveals Double-Histidine Motif Cu^II−NTA Spin-Labeling Robustness against Competitor Ions” (The journal of physical chemistry letters, 2021):
# “And” between values parts separate entries of the source, which are not always exact repeats. Identical values can stand only once. Like-named read-outs stand apart in the source and are kept apart here.
# Columns and labels:
# I6R1/K28H/Q32H GB1 [1] = target: T1, I6R1/K28H/Q32H GB1 (Streptococcus sp. group G, UniProt P06654, I232C/K254H/Q258H); experiment: Cu^II-nitroxide RIDME pseudotitration (pulse dipolar EPR); format: binding; details: for Kd: read-out: fitted dissociation constant (bivariate fit)
# T1 construct: MTSL nitroxide spin label on Cys6 (R1 side chain); made in house
# Excerpt: (§1) I Experimental Procedures:
# (§2) 1.1 Construct Design, Expression and Purification:
# (§3) Constructs of Streptococcus sp. group G, protein G B1 domain (GB1) were designed, expressed and purified as previously described.1,2 For completeness the protein sequences for the K28H/Q32H and I6C/K28H/Q32H GB1 constructs are given below in figures S1 and S2, respectively. The positions of the cysteine and double-histidine motif are indicated in cyan and green, respectively.
# (§4) K28H/Q32H GB1 Protein Sequence:
# (§5) Figure S1. Full amino-acid sequence for the K28H/Q32H GB1 construct used in this work, with each histidine residue of the double-histidine motif shown in green; and residue number indicated above the sequence.
# (§6) I6C/K28H/Q32H GB1 Protein Sequence:
# Figure S2. Full amino-acid sequence for the I6C/K28H/Q32H GB1 construct used in this work, with the cysteine residue shown in cyan and each histidine residue of the double-histidine motif shown in green; and residue numbers indicated […]
# 1.2 Pulse EPR Sample Preparation:
# All material was exchanged into pH-adjusted deuterated buffer A (42.4 mM Na2HPO4, 7.6 mM KH2PO4, 150 mM NaCl) by first freeze-drying and then re-dissolving in D2O. For Q-band RIDME samples of 6R1/28H/32H GB1, a total volume of 70 μL was used, with protein concentrations of 1, 2, or 5 μM as stated. All EPR samples were frozen by direct immersion into liquid nitrogen. ZnII-NTA and CuII-NTA stock solutions were prepared as previously described1,3; and for labelling, ZnII-NTA and CuII-NTA stock solutions with nominal concentrations of 100 and 10 mM were used, […]
# 1.3 Metal Chelate Spin Label Preparation:
# For preparation of all metal-NTA labels: CuII-NTA, and ZnII-NTA, , ZnCl2, CuCl2 and NTA were weighed in a glove-box and aliquoted into 1.5 mL reaction tubes. Stock solutions of 100 mM were prepared as previously described.3 Complete dissolution was ensured by vortexing until solutions were clear […]
# of precipitate. […]
# 1.5 Pulse EPR Measurements:
# All pulse EPR experiments were performed using a Bruker ELEXSYS 580 pulse EPR spectrometer.
# Temperatures were maintained using a cryogen-free variable temperature cryostat (Cryogenic Ltd) operating in the 1.8-300 K temperature range. All measurements of the electron spin longitudinal relaxation times (T1) of CuII-NTA, and all 5-pulse dead-time free RIDME measurements4 were performed at 30 K, using a high-power 150 W travelling-wave tube (TWT; Applied Systems […]
# an SRT of 2 ms, with 2560 points, 25 shots-per-point, and 1-5 scans, as stated. A τ of 800 ns was used, with an approximate time-window length of […], incremented in steps of 200 ns.
# 1.6 Competitive Binding Model:
# Let us begin by considering a binding equilibrium in presence of a competitor ligand (A), with the following two approximations: i) the binding of the ligand (L) and (A) to a protein (P) is mutually exclusive, and ii) the competitor (A) binds to (P) weakly with respect to (L). Here we can define a dissociation constant for both the ligand (KDL) and for the competitor (KDA), given in (S1) and (S2) […]
# Rearranging (S1) and (S2) for equilibrium concentrations of protein and protein-competitor complex, given as [P] and [PA] respectively, yields (S3) and (S4):
# Here, an expression for total protein, [P]0, can be defined:
# Substitution of (S3) and (S4) into (S5) yields (S6):
# Symbolic substitution and rearrangement of (S6) to solve for [PL] yields (S7): […]
# K28H/Q32H GB1 = target: T2, K28H/Q32H GB1 (Streptococcus sp. group G, UniProt P06654, K254H/Q258H); experiment: Isothermal titration calorimetry (ITC) at 298 K, single-site binding model
# T2 construct: made in house
# Protocol: seconds between injections, at 298 K. All solutions were degassed before the use and the final samples were centrifuged immediately before measurements. For the ZnII-NTA measurements, K28H/Q32H GB1 concentration was 800 μΜ, and titrant concentration was 12 mM. For the variable pH measurements, K28H/Q32H GB1 concentration was 75 μM and titrant concentration was 2.5 mM. Blank conditions of either buffer A (42.4 mM Na2HPO4, 7.6 mM KH2PO4, 150 mM NaCl, pH 7.4) titrated against addition of 12 mM titrant, or pH adjusted buffer A titrated against addition of 1.0 or 2.0 mM titrant, were recorded for the competitor and variable pH ITC measurements, respectively.
# Subtraction of the blank measurements from the raw data mitigated the heat of dilution. All data analyses were performed in MicroCal Origin 7 (OriginLab, Northampton, MA) and thermodynamic parameters were derived using standard Marquardt fitting of a single-site binding model, as in our previous work.1 The fitted equation is given as:
# Where: 3($) is the heat content of the solution at the point of the <th injection, is the binding constant, 4 is the stoichiometry of binding, =7 is the molar heat of ligand binding, 8 is the active cell volume, 56 is the total concentration of macromolecule contained in 8 , :6 is the total concentration of ligand contained in 8 .
# 1.8 UV-visible Spectroscopy:
# All UV-visible absorbance spectra were recorded using a Jenway 67 series UV-vis spectrophotometer, in plastic cuvettes with a path length of 10 mm, in single-beam mode. All spectra are recorded at ambient temperature, and with a wavelength resolution of 1 nm, in the wavelength range 320-800 nm. Each sample was blanked before measurement, and all were repeated in triplicate. Data was processed using the Jenway 67-series software suite, and were exported to ASCII format for plotting and analysis in Matlab. For quantitation of CuII-IDA and CuII-NTA concentration, molar extinction coefficients of 62 M-1 cm-1 and 59 M-1cm-1 at 726 nm, and 800 nm were used, respectively, taken from previous literature.1,11
# 6R1/28H/32H GB1 = target: 6R1/28H/32H GB1; design: method as in earlier work; details: pH 7.4; 75 μM protein, 2 mM CuII-NTA; cited from earlier work
# I6R1/K28H/Q32H GB1 [2] = target: T1, I6R1/K28H/Q32H GB1; experiment: Zn^II–NTA competitor RIDME pseudotitration (competition assay in presence of Cu^II–NTA); format: binding; details: low μM protein concentration
# Protocol: The corresponding RIDME pseudotitration was performed at 1 μM protein concentration in the presence of 10 μM Cu^II– NTA (to ensure quantitative loading at the double histidine motif prior to addition of competitor ligand (see SI section 1.6)) and varying Zn^II–NTA concentrations. […] Additionally, this benchmarks quantitation of Cu^II-nitroxide RIDME modulation depths for remotely determining binding affinities of EPR silent ligands, in a competition assay format.
# as §1, §2, §3, §4, §5, §6
# Figure S2. […]
# I6R1/K28H/Q32H GB1 [3] = target: T1, I6R1/K28H/Q32H GB1; details: pH 7.4; previous work; read-out: fitted dissociation constant; cited from earlier work
# [4] = pH 6.4, 298 K, listed as CuII-NTA
structure (smiles),measurement,setting,value
"O=C([O-])CN(CC(=O)[O-])CC(=O)[O-].[Cu+2] [Cu^II–NTA, Cu^II-nitrilotriacetic acid]",affinity reduction compared to pH 7.4,I6R1/K28H/Q32H GB1 [1]; pH 6.4,2 fold
same,available double-histidine motifs saturated,"I6R1/K28H/Q32H GB1 [1]; pH 6.4, 5 μM protein, 1 equiv of Cu^II–NTA",~70%
same,Kd,"I6R1/K28H/Q32H GB1 [1]; pH 6.4, 5 μM protein",0.31 µM and 0.308 µM
same,binding affinity higher than at pH 7.4,I6R1/K28H/Q32H GB1 [1]; pH 8.4,approximately 2 fold
same,Kd,"I6R1/K28H/Q32H GB1 [1]; pH 8.4, 2 μM protein",0.091 µM
same,binding at the double-histidine motif,"K28H/Q32H GB1; pH 5.0, 298 K, 75 μM protein, 2 mM Cu^II–NTA",negligible binding
same,Wiseman factor,K28H/Q32H GB1; pH 6.4,0.76
same,n (stoichiometry of binding),"K28H/Q32H GB1; pH 6.4, 298 K",~ 1
same,ΔH,"K28H/Q32H GB1; pH 6.4, 298 K",-6.9 kcal/mol
same,n (stoichiometry of binding),K28H/Q32H GB1; [4],0.97
same,ΔH,K28H/Q32H GB1; [4],-6.94 kcal/mol
same,Kd,"K28H/Q32H GB1; pH 6.4, 298 K, read-out: KD",98.6 µM
same,Kd,"K28H/Q32H GB1; pH 6.4, ΔH extrapolated to 235 K, listed as CuII-NTA, read-out: Predicted KD at 235 K",4.26 µM
same,Kd,"K28H/Q32H GB1; pH 6.4, ΔH extrapolated to 235 K, read-out: Predicted KD at 235 K",~4 µM
same,Wiseman factor,K28H/Q32H GB1; pH 8.4,9.42
same,n (stoichiometry of binding),"K28H/Q32H GB1; pH 8.4, 298 K",~ 2
same,ΔH,"K28H/Q32H GB1; pH 8.4, 298 K",-15.2 kcal/mol
same,n (stoichiometry of binding),"K28H/Q32H GB1; pH 8.4, 298 K, listed as CuII-NTA",2.04
same,Kd,"K28H/Q32H GB1; pH 8.4, 298 K, listed as CuII-NTA, read-out: KD",7.96 µM
same,Kd,"K28H/Q32H GB1; pH 8.4, 298 K, read-out: KD",8 µM
same,predicted increase in affinity compared to previous work,"K28H/Q32H GB1; pH 8.4, predicted from room-temperature ITC",20 fold
same,Wiseman factor,K28H/Q32H GB1; pH 9.0,3.00
same,ΔH,"K28H/Q32H GB1; pH 9.0, 298 K",-2.92 kcal/mol
same,n (stoichiometry of binding),"K28H/Q32H GB1; pH 9.0, 298 K, 1 mM CuII-NTA",0.94
same,Kd,"K28H/Q32H GB1; pH 9.0, 298 K, read-out: KD",25 µM
same,Kd,"K28H/Q32H GB1; pH 9.0, read-out: Predicted KD at 235 K",6.67 µM
same,Kd,6R1/28H/32H GB1,5 µM
same,robust against Zn^II–NTA competitor ligand in molar excess,I6R1/K28H/Q32H GB1 [2],> 1000 fold
same,Kd,I6R1/K28H/Q32H GB1 [3],0.14 µM
